Target: CRL4^CRBN-pomalidomide-SALL4 ZF1-ZF2 (aa 378–453) ternary complex (Homo sapiens, UniProt Q96SW2+Q9UJQ4)
Settings: presence vs absence of pomalidomide

CRL4^CRBN-pomalidomide-SALL4 ZF1-ZF2 (aa 378–453) ternary complex, sequence (Q9UJQ4 378-453 limits assumed): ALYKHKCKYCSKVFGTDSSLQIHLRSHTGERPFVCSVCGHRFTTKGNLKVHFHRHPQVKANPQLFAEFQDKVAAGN
CRL4^CRBN-pomalidomide-SALL4 ZF1-ZF2 (aa 378–453) ternary complex, sequence (Q96SW2 whole entry, the tested form may be a part): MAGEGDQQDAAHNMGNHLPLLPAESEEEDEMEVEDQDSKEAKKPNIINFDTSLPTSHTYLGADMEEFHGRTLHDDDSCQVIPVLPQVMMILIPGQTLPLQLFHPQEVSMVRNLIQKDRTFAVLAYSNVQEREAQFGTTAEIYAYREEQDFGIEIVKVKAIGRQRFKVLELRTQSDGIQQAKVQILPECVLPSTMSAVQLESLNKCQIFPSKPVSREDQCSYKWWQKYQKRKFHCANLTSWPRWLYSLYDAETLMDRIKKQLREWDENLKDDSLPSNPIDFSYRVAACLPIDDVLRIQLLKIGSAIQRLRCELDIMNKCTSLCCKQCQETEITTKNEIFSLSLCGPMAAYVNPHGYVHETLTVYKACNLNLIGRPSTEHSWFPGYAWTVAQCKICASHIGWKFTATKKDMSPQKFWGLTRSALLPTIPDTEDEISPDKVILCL
CRL4^CRBN-pomalidomide-SALL4 ZF1-ZF2 (aa 378–453) ternary complex, sequence (Q16531 whole entry partner, the tested form may be a part): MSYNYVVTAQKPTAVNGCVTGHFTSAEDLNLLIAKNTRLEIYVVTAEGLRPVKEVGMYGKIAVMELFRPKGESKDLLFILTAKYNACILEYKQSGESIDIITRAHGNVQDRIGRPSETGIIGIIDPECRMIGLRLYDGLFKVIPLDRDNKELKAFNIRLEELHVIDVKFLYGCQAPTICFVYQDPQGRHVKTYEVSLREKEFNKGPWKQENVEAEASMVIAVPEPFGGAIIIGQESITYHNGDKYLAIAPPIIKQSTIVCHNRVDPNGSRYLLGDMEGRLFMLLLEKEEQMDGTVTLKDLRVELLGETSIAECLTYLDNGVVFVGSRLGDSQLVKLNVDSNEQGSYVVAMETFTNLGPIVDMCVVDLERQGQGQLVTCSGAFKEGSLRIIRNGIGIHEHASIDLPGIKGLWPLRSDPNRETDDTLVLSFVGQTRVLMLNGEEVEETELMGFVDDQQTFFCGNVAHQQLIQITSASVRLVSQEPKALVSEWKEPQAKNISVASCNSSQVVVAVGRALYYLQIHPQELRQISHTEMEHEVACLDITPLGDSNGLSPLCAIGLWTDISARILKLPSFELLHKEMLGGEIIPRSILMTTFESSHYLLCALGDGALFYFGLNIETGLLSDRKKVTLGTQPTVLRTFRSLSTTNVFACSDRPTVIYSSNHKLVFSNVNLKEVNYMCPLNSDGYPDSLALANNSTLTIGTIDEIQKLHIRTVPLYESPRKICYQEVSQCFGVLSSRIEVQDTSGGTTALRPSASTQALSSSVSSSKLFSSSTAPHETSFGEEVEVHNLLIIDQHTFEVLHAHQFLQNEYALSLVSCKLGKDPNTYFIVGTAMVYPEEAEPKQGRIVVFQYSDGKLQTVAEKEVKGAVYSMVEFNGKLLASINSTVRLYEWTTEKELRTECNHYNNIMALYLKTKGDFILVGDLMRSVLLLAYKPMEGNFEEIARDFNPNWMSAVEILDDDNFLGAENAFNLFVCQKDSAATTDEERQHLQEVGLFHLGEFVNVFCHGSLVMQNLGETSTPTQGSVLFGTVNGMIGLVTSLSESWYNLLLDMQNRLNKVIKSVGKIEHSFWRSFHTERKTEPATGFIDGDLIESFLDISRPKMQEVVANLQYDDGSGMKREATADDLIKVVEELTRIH
CRL4^CRBN-pomalidomide-SALL4 ZF1-ZF2 (aa 378–453) ternary complex, sequence (Q13619 whole entry partner, the tested form may be a part): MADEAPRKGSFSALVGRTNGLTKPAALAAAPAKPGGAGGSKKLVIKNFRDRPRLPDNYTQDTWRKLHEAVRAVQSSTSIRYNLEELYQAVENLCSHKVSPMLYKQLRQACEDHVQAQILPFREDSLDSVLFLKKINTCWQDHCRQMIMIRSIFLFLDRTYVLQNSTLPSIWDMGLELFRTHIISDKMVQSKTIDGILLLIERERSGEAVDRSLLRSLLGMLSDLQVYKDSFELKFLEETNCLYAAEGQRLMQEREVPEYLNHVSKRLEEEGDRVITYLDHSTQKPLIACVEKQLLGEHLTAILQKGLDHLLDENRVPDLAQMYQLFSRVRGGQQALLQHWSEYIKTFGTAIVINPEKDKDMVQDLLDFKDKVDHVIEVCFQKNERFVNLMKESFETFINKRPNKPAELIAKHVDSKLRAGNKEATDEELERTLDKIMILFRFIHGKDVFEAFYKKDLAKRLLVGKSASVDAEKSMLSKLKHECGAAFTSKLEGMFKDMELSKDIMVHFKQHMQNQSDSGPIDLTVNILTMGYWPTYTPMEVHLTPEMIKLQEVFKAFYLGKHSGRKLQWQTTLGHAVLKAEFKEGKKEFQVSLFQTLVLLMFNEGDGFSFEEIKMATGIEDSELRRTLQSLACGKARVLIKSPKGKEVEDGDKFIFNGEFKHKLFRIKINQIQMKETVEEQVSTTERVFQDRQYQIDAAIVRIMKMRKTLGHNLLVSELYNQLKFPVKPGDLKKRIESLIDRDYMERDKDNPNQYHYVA
CRL4^CRBN-pomalidomide-SALL4 ZF1-ZF2 (aa 378–453) ternary complex, sequence (P62877 whole entry partner, the tested form may be a part): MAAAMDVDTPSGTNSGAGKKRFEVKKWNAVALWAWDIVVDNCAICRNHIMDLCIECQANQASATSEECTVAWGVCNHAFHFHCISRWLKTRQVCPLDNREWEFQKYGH
CRL4^CRBN-pomalidomide-SALL4 ZF1-ZF2 (aa 378–453) ternary complex, sequence (Q15843 1-76 partner limits assumed): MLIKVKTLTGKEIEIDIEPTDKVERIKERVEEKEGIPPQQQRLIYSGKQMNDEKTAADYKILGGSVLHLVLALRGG

- enhancement of SALL4 recruitment by CRL4^CRBN in the presence of pomalidomide: more than 10 fold
SMILES: Nc1cccc2c1C(=O)N(C1CCC(=O)NC1=O)C2=O (stereo not shown) [Pomalidomide]

Source: publication PMC13494539 (Cell Reports Methods, 2026)
